Measurements reported in US20050069544A1, “Pharmaceutical composition and a method of treatment” (priority 1998, published 2005).
Entries after “also recorded” stand apart in the source; their conditions may differ.

Tests used:
[1] = system: CD3+ CD4+ T-cells of RhD-alloimmunised donors; assay: Three colour flow cytometry of CD3, CD4 and intracellular IFN-γ or IL-10 in PBMC from RhD-alloimmunised donors; type: cell-based, human; settings: CD3+ gated, representative alloimmune donor, 5 days; for proportion of CD4+ IL-10+ T-cells: unstimulated cultures 2.4%; for proportion of CD4+ IFN-γ+ T-cells: unstimulated cultures 4.2%
Procedure: The secretion of cytokines identified in Example 1.3 by T-helper cells is confirmed by flow cytometery analysis. Simultaneous measurement of surface molecules CD3 and CD4 and intracellular cytokines IFN-γ or IL-10 was carried out using three colour flow cytometry analysis in PBMC, isolated from RhD-alloimmunised donors, cultured with either no antigen or RhD peptide for five days after stimulation. All analysis was carried out using Expo v2 analysis software (applied Cytometry Systems). The CD3+ T-cells were gated open and the numbers of IFN-γ+ and CD4+ cells were assessed. In all donors tested there was a significant increase in the proportion of CD4+ IFN-γ+CD3+ T-cells to at least one of the RhD peptides tested. In the representative example shown in FIGS. 12A to 12L it can be seen that the proportion of CD4+ IFN-γ+cells was 4.2% in unstimulated cultures (FIG. 12E). […] The IL-10 and CD4+ expression was also assessed on CD3+ gated population of T-cells. In PBMC cultures isolated from the alloimmune donor shown, there was an increase in the proportion of CD4+ IL-10+T-cells from 2.4% in unstimulated PBMC cultures (FIG. 12I) to 6.5% in culture stimulated with RhD peptide 13 (FIG. 12J) to 6.2% in cultures stimulated with RhD peptide 17 (FIG. 12K) and 5.9% with RhD peptide 28 (FIG. 12L).

[2] = system: HLA-DR15 transgenic mice; assay: Tolerisation in vivo to RhD protein in HLA-DR15 transgenic mice; settings: for RhD-specific proliferation by splenocytes after prior tolerisation: peptide intranasal 14 days before RhD immunisation
Procedure: HLA-DR15 transgenic mice were immunised twice with 2 mg/ml purified RhD protein. The first subcutaneous injection was followed 14 days later by an intraperitoneal injection. Mice were sacrificed 14 days after the final injection. The spleen was removed and blood collected by cardiac puncture.
Fourteen days before RhD immunisation (as above) 25 μl of 2 mg/ml soluble RhD peptides were administered by the intranasal route.
Fourteen days before RhD immunisation (as above) 25 μl of 2 mg/ml soluble RhD peptides were administered by the subcutaneous route.
Splenocytes were homogenised and a single cell suspension was isolated over 40 μm mesh filters (Becton Dickinson) and resuspended to 1.25×10^6 cells/ml in the Alpha Modification of Eagle's Medium (ICN Flow, Bucks UK) supplemented with 5% autologous serum, 4 mM L-Glutamine (Gibco, Paisley, UK), 100 U/ml sodium benzylpenicillin G (Sigma), 100 μg/ml streptomycin sulphate (Sigma), 5×10^−5 2-mercaptoethanol (Sigma) and 20 mM HEPES pH7.2 (Sigma). All plates were incubated at 37° C. in a humidified atmosphere of 5% CO2/95% air. The cell proliferation in cultures was estimated from the incorporation of ^3H-thymidine (Amersham) in triplicate wells 5 days after stimulation with antigen. Proliferation results are presented either as the mean CPM±SD of the triplicate samples, or as a stimulation index (SI) expressing the ratio of mean CPM in stimulated versus unstimulated control cultures. An SI>3 with CPM>500 is interpreted as representing a positive response.
Round bottomed microtitre plates (Nunc, Roskilde, Denmark) were blocked in phosphate buffered saline pH 7.4 (PBS) containing 0.2% bovine serum albumin (BSA), before addition of 50 μl 2% v/v washed human D-positive RBC. Test sera were incubated at 50 μl per well with triplicate RBC samples for 1 hour at 37° C. and washed three times in PBS-BSA before fixing for 30 minutes in 0.15% glutaraldehyde (Sigma, Dorset, UK) to prevent lysis of the cells in the alkaline conditions required later in the test. The fixed RBC were transferred to fresh, pre-blocked, 96-well plates and washed before incubation with 50 μl per well 1 μg/ml goat anti-mouse IgG γ-chain specific antibody (Sigma) or goat anti-mouse IgM μ-chain specific antibody (Sigma) for 1 hour at 37° C. After washing, the plates were incubated with 50 μl per well 1 μg/ml rabbit anti-goat IgG alkaline phosphatase (Sigma) for 1 hour at 37° C., washed, and 100 μl of phosphatase substrate solution was then incubated in each well for 1 hour at 37° C. After pelleting of the RBC by centrifugation, 50 μl of each supernatant was transferred into the wells of fresh, flat-bottomed microtitre plates (Nunc) and the absorbance measured at 405 nm, with 492 nm as a reference, using a multiscan plate reader (Labsystems, Basingstoke, UK). Each result is expressed as the mean of triplicate wells. Inter-assay variation was controlled for by including previously tested RBC samples on each plate.
It is known from other animal models (Elson C J & Barker R N. Helper T-cells in antibody mediated, organ specific autoimmunity. Curr Opin Immunol, 2000; 12:664-669) that mucosal administration of immunodominant peptides which induce an immune response when given with adjuvant by the parenteral route will inhibit responsiveness, and induce antigen specific tolerance. To test the effectiveness of peptides containing immunodominant allo-RhD helper epitopes in preventing antibody response to the RhD protein, HLA-DR15 transgenic mice were used for the in vivo testing of these peptides as most alloimmunised donors responding to RhD bear this MHC class II allele.

[3] = system: PBMC from RhD alloimmunised donors; assay: Cell proliferation assay (3H-thymidine) of PBMC from RhD alloimmunised donors stimulated with RhD peptides; type: cell-based, human; settings: peptide 20 μg/ml, 5 days
Procedure: Five complete panels of 68 15-mer peptides, with 5 or 10 amino acid overlaps, were synthesized (Multiple Peptide Service, Cambridge Research Biochemicals, Cheshire, UK and Dept. Of Biochemistry, University of Bristol, UK), corresponding to the sequences of the 30 kD Rh proteins associated with expression of the RhD or RhcE/ce/Ce/CE blood group antigens respectively (Tables 1 to 5). An additional three peptide sequences is added to the panel of RhD peptides to account for the Ile to Met substitution described earlier (numbered from 69 to 71). The amino acid sequences for each of these proteins were deduced from cDNA analyses (FIG. 1). In order to ensure purity, each panel was synthesized by fluorenylmethoxycarbonyl chemistry on resin using a base-labile linker, rather than by conventional pin technology, and randomly selected peptides were screened for purity by HPLC and amino acid analysis.
Peripheral blood mononuclear cells (PBMC) from donors or patients were separated from fresh blood samples using Ficoll-Hypaque. The donors and patients had become alloimmunised with RhD-positive blood either through pregnancy, a blood transfusion or through immunization with the relevant blood.
PBMC were cultured in 100 μl volumes in microtitre plates at a concentration of 1.25×10^6 cells/ml in an Alpha Modification of Eagle's Medium (ICN Flow, Bucks UK) supplemented with 5% autologous serum, 4 mM L-Glutamine (Gibco, Paisley, UK), 100 U/ml sodium benzylpenicillin G (Sigma), 100 μg/ml streptomycin sulphate (Sigma), 5×10^−5M 2-mercaptoethanol (Sigma) and 20 mM HEPES pH7,2 (Sigma). All plates were incubated at 37° C. in a humidified atmosphere of 5% CO2/95% air. The cell proliferation in cultures was estimated from the incorporation of ^3H-Thymidine in triplicate wells 5 days after stimulation with antigen as described previously. Proliferation results are presented either as the mean CPM+/−SD of the triplicate samples, or as a stimulation index (SI), expressing the ratio of mean CPM in stimulated versus unstimulated control cultures. An S1>3 with CPM>1000 is interpreted as representing a positive response.

[4] = system: PBMC from RhD-alloimmunised donors; assay: celELISA of cytokine production (IL-10, TGF-β1) by PBMC from RhD alloimmunised donors; type: cell-based, human; settings: for IL-10 production by PBMC: FIG. 3 and FIG. 10; for TGF-β1 production by PBMC: FIG. 3 and FIG. 11
Procedure: Cultured T-cells are stimulated with each of the epitopes given in Table 1 and after 5 days the responding cells were transferred to flat-bottomed microtitre plates (96-well Nunc-Immuno Maxisorp) coated with […] per well of monoclonal anti-cytokine capture antibody diluted in 0.05M alkaline carbonate coating buffer pH 9.6. Unbound capture antibody was removed by two washes with HBSS and non-specific binding potential blocked by incubation with 200 μl per well of phosphate buffered saline, pH 7.4 (PBS containing 3% BSA).
Five days after stimulation, lymphocyte cultures were mixed to resuspend the cells and duplicate 100 μl aliquots were transferred into wells coated with the respective capture antibody specific for IFN-γ, IL-10 or TGF-β. The plates coated with capture antibodies and layered by lymphocytes were then incubated for a further 24 hours at 37° C. in a humidified atmosphere of 5% CO2 and 95% air. After this incubation the PBMC were removed by four washes with 0.2% Tween/PBS. One hundred microlitre aliquots of the appropriate biotinylated monoclonal detection antibody in 0.2% BSA/PBS were then added to the wells and incubated at room temperature for 45 minutes.
After six washes with 0.5% Tween/PBS, 100 μl of 1:100,000 ExtrAvidin-alkaline phosphatase conjugate (Sigma) was then added to each of the wells and incubated at room temperature for 30 minutes. The ExtrAvidin conjugate was removed by eight washes with 0.2% Tween/PBS, and the plates developed using 100 μl per well of p-nitrophenyl phosphate (Sigma) 1.0 mg/ml in 0.05M carbonate alkaline buffer pH9.6. The absorbance at 405 nm was then measured using a Multiscan plate reader (Labsystems Basingstoke UK).
Cytokine secretion was measured by interpolation from a standard curve generated by incubating duplicate wells with doubling dilutions of recombinant human IFN-γ or IL-10 or TGF-β (Pharmingen). The standard curves were modelled by a smoothed cubic spline function applied to the absorbance reading and the cytokine concentrations after a quasilogarithmic transformation, where: quasiloge(z)=loge[z+{square root}[z^2+1]).
Using celELISA technique, the 68 RhD peptide panel was screened for the ability to induce IL-10 and TGF-β production for PBMC from a total of 19 samples from 12 different alloimmune donors. PMBC from 10 out of the 12 RhD-alloimmunised donors could produce IL-10 to at least one of the RhD peptides on at least one occasion, with a total of 194 significant IL-10 responses to the RhD peptides between all the donors. The RhD peptides that induced significant TGF-β or IL-10 and proliferative responses from PBMC in all the samples screened are summarised in FIGS. 10 and 11.

[5] = nasal administration of peptide prior to RhD immunisation

| Sequence | proportion of CD4+ IL-10+ T-cells [1] [%] | RhD-specific proliferation by splenocytes after prior tolerisation [2] | proliferative T-cell response to RhD peptides [3] | IL-10 production by PBMC [4] | TGF-β1 production by PBMC [4] | other results |
| --- | --- | --- | --- | --- | --- | --- |
| AYFGLSVAWCLPKPL (Residue 177-191 RhD; listed as Homo sapiens) [peptide 28] | 5.9 | reduction in the RhD-specific proliferation | most commonly targeted | – | – | proportion of CD4+ IFN-γ+ T-cells [1]: 10.2% |
| FLSQFPSGKVVITLF (Residue 97-111 RhD; listed as Homo sapiens) [peptide 13] | 6.5 | reduction in the RhD-specific proliferation | most commonly targeted | – | – | – |
| FSLLGLLGEIIYIVL (Residue 332-346 RhD; listed as Homo sapiens) [compound 56] | – | – | most commonly targeted | commonly induce the production of IL-10 | – | – |
| LGFLTSSFRRHSWSS (Residue 62-76 RhD; listed as Homo sapiens) [compound 8] | – | – | – | – | commonly induce the production of TGF-β1 | – |
| LGLVAGLISVGGAKY (Residue 297-311 RhD; listed as Homo sapiens) [compound 49] | – | – | – | commonly induce the production of IL-10; also recorded: induce IL-10 production in the absence of a proliferative response or the production of IFN-γ or IL-4 | – | – |
| QDLTVMAAIGLGFLT (Residue 52-66 RhD; listed as Homo sapiens) [peptide 6] | – | reduction in the RhD-specific proliferation | most commonly targeted | commonly induce the production of IL-10; also recorded: induce IL-10 production in the absence of a proliferative response or the production of IFN-γ or IL-4 | – | RhD-specific proliferation by splenocytes after prior tolerisation ([2]; listed as p6): reduced T-cell response to RhD protein; serum anti-human RBC antibody, rr red blood cells ([2]; peptide intranasal before RhD immunisation): reduction of anti-human RBC antibody |
| SIRLATMSALSVLIS (Residue 112-126 RhD; listed as Homo sapiens) [peptide 16] | – | – | most commonly targeted | – | commonly induce the production of TGF-β1 | IL-10 production by draining lymph node cells [2, 5]: increase; TGF-β1 production by draining lymph node cells [2, 5]: increase |
| TMSALSVLISVDAVL (Residue 117-131 RhD; listed as Homo sapiens) [peptide 17] | 6.2 | reduction in the RhD-specific proliferation | most commonly targeted; also recorded: induces significant PBMC proliferation | – | – | proportion of CD4+ IFN-γ+ T-cells [1]: 20.3%; percentage of donors in whom a proliferative response was elicited ([3]; SI>3 with CPM>1000 positive, FIG. 6): 70% |
| WLAMVLGLVAGLISV (Residue 292-306 RhD; listed as Homo sapiens) [peptide 48] | – | – | – | – | commonly induce the production of TGF-β1; also recorded: induces TGF-β1 production in the absence of a proliferative response or the production of IFN-γ or IL-4 | – |
